In US7629318B2, “Immunosuppressant compounds, methods and uses related thereto” (priority 2002, dated 2009):
Where “and” joins values, the source holds several entries; their conditions need not be identical. Equal values may be shown once. Square brackets hold non-standard residues; d marks the D form. Peptide text beside a SMILES is read from it. * marks the point of attachment. Gly(1-amidinopiperidin-4-yl) = N=C(N)N1CCC([C@H](N)C(=O)O)CC1; Tic = O=C(O)[C@@H]1Cc2ccccc2CN1; Cha = N[C@@H](CC1CCCCC1)C(=O)O; NHPhenethyl = c1ccc(CCN*)cc1; NMe(benzyl) = CN(Cc1ccccc1)*; Nle = CCCC[C@H](N)C(=O)O

Columns and labels:
[1] = Stability of compounds in mouse blood plasma; format: in vitro ADME
Summary of the method: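 Compounds at 5 μM final in rat, mouse or human plasma, incubated at 37 °C and sampled at 0, 6 and 24 h. Proteins precipitated with acetonitrile and the supernatant dried and reconstituted in 50% acetonitrile/0.1% TFA. PBS controls run for unstable compounds.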

[2] = tested on: T cell activation from 0401(DR4) chimeric MHCII-mice; experiment: In vivo inhibition of T cell activation by co-immunisation, DR4 mice immunised with HEL; parameters: species or system mouse; % Reduction of response to PPD(HEL): concentration or dose not given beside the values; conditions: for % Reduction of response to HEL: DR4 mice co-immunised with HEL plus compound, mean % inhibition from the control over 3 concentrations of antigen (6.7, 20 and 60 ug); for % Reduction of response to PPD(HEL): specificity control: response to PPD in the same cell pool, HEL co-immunised mice
Source text: Mouse strains DR4 and DR14 carry chimeric MHC-II transgenes that encode the N-terminal domains of the respective DR molecules (forming the peptide binding site) and the remaining (2nd extracellular domains, transmembrane and intracytoplasmic domains) of the murine class II molecule I Ed. These strains are deficient of other murine class II, and thus, all helper T cell responses are triggered by peptides presented in the respective human MHC-II binding site. As an initial in vivo test of subject inhibitors designed to bind to DR, DR-transgenic mice were co-immunized with a pre-defined dose of protein antigen and different amounts of the compound antagonist to be tested. In this set-up, both antigen and compound were emulsified together in complete Freund's adjuvant (CFA), and thus, a direct competition between the two components for presentation by DR was tested. Readout of the assay is ex vivo antigen-specific activation of T cells from regional lymph nodes explanted 9 days after co-immunization. In a typical experiment, antigen dose-response was investigated, and the curves from mice immunized with antigen were compared to those from mice co-immunized with antigen+compound. The dose response curves were generated using lymph node cells pooled at equal numbers from 2-3 mice per experimental group. The experimental system also permits assessment of inherent antigenicity of the compound antagonist. This was done by setting up a dose-response study from the same cell pool using different concentrations of the compund under investigation instead of the antigen. As a specificity control, the response to Purified Protein Derivative (PPD), the major protein component of CFA, was tested in the same cell pool.
All Gpg conataining compounds have significant immunosupressive properties in one or both of the in-vivo models. Gpg-containing compounds also show improved activity or improved specificity over the Arg-containing equivilent. Further, compounds according to Formula I show activity in this assay.
Compounds of the invention were injected as an Emulsion prepared using CFA (Bacto Adjuvant Complete H37 Ra, Difco, Order-No. 3113-60); proteins 10 mg/ml in PBS, inhibitors 5 μM in 10% DMSO. CFA, PBS, antigen, and inhibitor were placed in the barrel of a 5-ml syringe (total volume not more than 1 mL). The mixture was sonicated at an amplitude less than 40% (30-35%) for two separated 15 s periods. The emulsion should seem to be hard and not liquid at this point. A drop of emulsion placed on the surface of water should not melt. The resulting emulsion was pushed through the needle into a 1 ml syringe with a needle (Gr.18, 26G×1″), and air bubbles were removed. Mice were co-immunized with 50 μg protein and 210 nM compound antagonist in final 100 μl emulsion into the tail base. Antigen+Compound and CFA are mixed 1:1 vol/vol. The best results are obtained using DR 4 mice immunised with HEL and DR 14 mice immunized with OVA.
Mice were injected at the tail-base as follows: Holding the tail of a mouse with thumb and middle finger, the index finger was placed under the base of the mouse's tail. The needle of the syringe was inserted about 1.5 cm from the tail base (hairy end) under the skin and pushed about 1 cm into the tail. 100 μl emulsion was injected into the mouse. After 9 days, mice were killed and lymph nodes removed.
The inhibitory effect of the candidate compounds on T-cell activation was tested using T-cells and antigen-presenting cells isolated from the lymph nodes of chimeric DR4-IE transgenic mice (Taconic, USA) previously co-immunized with hen egg lysozyme plus compound, or DR14-IE transgenic mice co-immunized with ovalbumin plus compound according to standard procedures (Adorini et al., 1988, Mueller et al., 1990; Current Protocols in Immunology, Vol. 2, 7.21; Ito et al., 1996). […]

[3] = tested on: T cell activation from 0404(DR14) chimeric MHCII-mice; experiment: In vivo inhibition of T cell activation by co-immunisation, DR14 mice immunised with OVA; parameters: species or system mouse; % Reduction of response to PPD(OVA): concentration or dose not given beside the values; conditions: for % Reduction of response to OVA: DR14 mice co-immunised with OVA plus compound, mean % inhibition from the control over 3 concentrations of antigen (6.7, 20 and 60 ug); for % Reduction of response to PPD(OVA): specificity control: response to PPD in the same cell pool, OVA co-immunised mice
Summary of the method: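 DR4 or DR14 chimeric MHC-II transgenic mice were co-immunised at the tail base with 50 μg HEL (DR4) or OVA (DR14) plus 210 nM compound, emulsified in CFA. After 9 days, pooled lymph node cells from 2–3 mice per group were tested for T-cell proliferation across an antigen dose range, compared with antigen-only immunisation; PPD served as a specificity control.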

[4] = tested on: T-cell proliferation, lymph node cells of chimeric 0401-IE transgenic mice; conditions: for Immunsupressive assays DR4-LN (Max) % Inhibition: maximal inhibition; for immunosuppressive properties as measured by a T-cell activation assay: dose-response curves; for IC50: read-out: Immunsupressive assays DR4-LN (IC50); for Immunsupressive assays DR4-LN (Max) % Inhibition / IC50: DR4-LN
Summary of the method: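 Antigen-primed lymph node cells (1.5×10^5/well) from mice lacking murine class II and carrying a chimeric human RA-associated class II transgene, cultured 3 days with ovalbumin at half-maximal dose plus compound (~0.1–200 uM) in serum-free HL-1. Proliferation read by 3H-thymidine incorporation over the final 16 h.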

[5] = tested on: HLA-DR1 transgenic mice, collagen induced arthritis; experiment: Collagen induced arthritis (CIA) mouse model for rheumatoid arthritis; format: in vivo; conditions: compared to solvent as control; s.c.
Method: CIA is induced by immunization with type II collagen in HLA-DR1 transgenic mice as described by Rosloniec et al (J. Exp. Med. 1997; 185: 113). After disease onset, mice are treated with compounds at the maximal tolerated dose s.c. for two weeks, and the disease development compared to that in mice treated with solvent only as follows:
Disease Severity Score • 1. Erythema and mild swelling confined to the tarsals or ankle joint • 2. Erythema and mild swelling extending from the ankle to the tarsals • 3. Erythema and moderate swelling extending from the ankle to the metatarsal joints • 4. Erythema and severe swelling encompass the ankle, foot, and digits

| Compound | Stability (Arbitrary units) Mouse 24 h [1] [Arbitrary units] | % Reduction of response to HEL [2] [%] | % Reduction of response to PPD(HEL) [2] [%] | % Reduction of response to OVA [3] [%] | % Reduction of response to PPD(OVA) [3] [%] | Immunsupressive assays DR4-LN (Max) % Inhibition [4] [%] | immunosuppressive properties as measured by a T-cell activation assay [4] | IC50 [4] | efficacy in the CIA mouse model for rheumatoid arthritis [5] | Stability (Arbitrary units) Mouse 6 h [1] [Arbitrary units] | in-vivo immunosuppressive properties following co-immunisation with antigen as measured by T-cell proliferation ([3]; compared to the Arg-containing equivalent, antigen/mouse strain not stated in the legend) |
| --- | --- | --- | --- | --- | --- | --- | --- | --- | --- | --- | --- |
| CCCC[C@H](NC(=O)[C@@H]1Cc2ccccc2CN1C(=O)[C@@H](NC(=O)[C@H](CC1CCCCC1)NC(C)=O)C1CCN(C(=N)N)CC1)C(=O)N(C)Cc1ccccc1 [Compound P74, Ac-Cha-Gpg-Tic-Nle-N(Me)Bn] (Ac-[Cha][Gly(1-amidinopiperidin-4-yl)][Tic][Nle]-{NMe(benzyl)}) | 97 | 51.6 | 12.8 | 42.5 | 5.8 | 102 | immunosuppressive properties | 16 µM and 18 µM | Efficacy |  |  |
| CCCC[C@H](NC(=O)[C@@H]1Cc2ccccc2CN1C(=O)[C@@H](NC(=O)[C@H](CC1CCCCC1)NC(C)=O)C1CCN(C(=N)N)CC1)C(=O)NCCc1ccccc1 [Compound P69, Ac-Cha-Gpg-Tic-Nle-N(H)CH2CH2Ph] (Ac-[Cha][Gly(1-amidinopiperidin-4-yl)][Tic][Nle]-NHPhenethyl) | 85 | 59 | 2 | 65.3 | 9 | 101 | immunosuppressive properties | 19 µM | Efficacy | 115 | Superior in-vivo immunosuppressive properties |
